# In publication PMC5613016, “GRL-09510, a Unique P2-Crown-Tetrahydrofuranylurethane -Containing HIV-1 Protease Inhibitor, Maintains Its Favorable Antiviral Activity against Highly-Drug-Resistant HIV-1 Variants in vitro” (Scientific Reports, 2017):
# Like-named read-outs stand apart in the source and are kept apart here.
# Assays:
# [1] = test system: HIV-192UG029 (subtype A, X4); experiment: p24 production inhibition in PHA-PBMC; type: cell-based, HIV-1; conditions: Human immunodeficiency virus 1, read-out: EC50 HIV-192UG029 (subtype A, X4)
# Procedure: (§1) The susceptibility of HIV-1LAI or HIV-2ROD to various compounds was determined as previously described[20]–[22]. Briefly, MT-2 cells (10^4/ml) were exposed to 100 TCID50 of HIV-1LAI or HIV-2ROD in the presence or absence of various concentrations of compounds in 96-well plates and were incubated at 37 °C for 7 days. After incubation, 100 μl of the medium was removed from each well, 3-(4,5-dimetylthiazol-2-yl)-2,5-diphenyltetrazolium bromide (MTT) solution (10 μl, 7.5 mg/ml in PBS) was added to each well, followed by incubation at 37 °C for 2 h. […] To determine the sensitivity of clinically isolated HIV-1s to compounds, PHA-PBMC (10^6/ml) were exposed to 50 TCID50 of each HIV-1 and cultured in the presence or absence of various concentrations of compounds in 10-fold serial dilutions in 96-well plates. In determining the drug-susceptibility of certain laboratory HIV-1 strains, MT-4 cells were employed as target cells as previously described[23],[24]. MT-4 cells (10^5/ml) were exposed to 100 TCID50 of drug-resistant HIV-1s in the presence or absence of various concentrations of compounds and were incubated at 37 °C. On day 7, the supernatants were harvested and the amounts of p24 were determined by using a fully-automated chemiluminescent enzyme immunoassay system (Lumipulse f: Fujirebio, Tokyo)[35]–[37]. […] All assays were performed in duplicate, and EC50 shown in this report represent average values of two to four independent experiments. PHA-PBMCs were derived from a single donor in each independent experiment. The research protocols described in the present study were carried out in accordance with relevant guidelines and regulations, and were approved in Ethics Committee for Epidemiological and General Research at the Faculty of Life Sciences, Kumamoto University.
# [2] = Cytotoxicity against MT-2 cells (MTT assay); type: cell-based; conditions: human
# Procedure: as §1
# [3] = test system: HIV-1MDRmix DRV ^R 20P; experiment: p24 production inhibition in PHA-PBMC; type: cell-based; conditions: for EC50: Human immunodeficiency virus 1, read-out: EC50 HIV-1MDRmix DRV ^R 20P, PHA-PBMC, p24 Gag production
# Procedure: as §1
# [4] = test system: HIV-1ERS104pre (wild-type); experiment: p24 production inhibition in PHA-PBMC; type: cell-based; conditions: Human immunodeficiency virus 1, PHA-PBMC, p24 Gag production
# Procedure: as §1
# [5] = test system: HIV-1BaL (subtype B, R5); experiment: p24 production inhibition in PHA-PBMC; type: cell-based; conditions: Human immunodeficiency virus 1, PHA-PBMC, p24 Gag production
# Procedure: as §1
# [6] = test system: HIV-1MDR/G; experiment: p24 production inhibition in PHA-PBMC; type: cell-based; conditions: for EC50: Human immunodeficiency virus 1, PHA-PBMC, p24 Gag production
# Procedure: as §1
# [7] = test system: HIV-1MDR/B; experiment: p24 production inhibition in PHA-PBMC; type: cell-based; conditions: for EC50: Human immunodeficiency virus 1, PHA-PBMC, p24 Gag production
# Procedure: as §1
# [8] = test system: HIV-1ME46 (subtype B, X4/R5); experiment: p24 production inhibition in PHA-PBMC; type: cell-based; conditions: Human immunodeficiency virus 1, PHA-PBMC, p24 Gag production
# Procedure: as §1
# [9] = test system: HIV-1MDR/C; experiment: p24 production inhibition in PHA-PBMC; type: cell-based; conditions: for EC50: Human immunodeficiency virus 1, PHA-PBMC, p24 Gag production
# Procedure: as §1
# [10] = test system: HIV-1MDR/TM; experiment: p24 production inhibition in PHA-PBMC; type: cell-based; conditions: for EC50: Human immunodeficiency virus 1, PHA-PBMC, p24 Gag production
# Procedure: as §1
# [11] = test system: HIV-2ROD; experiment: microbe, parasite or virus in culture; type: cell-based; conditions: for EC50: Human immunodeficiency virus 2, MT2, MT-2 cells, 100 TCID50, MTT assay, read-out: EC50 Against HIV-2ROD
# Procedure: as §1
# [12] = test system: HIV-1LAI; experiment: microbe, parasite or virus in culture; type: cell-based; conditions: for EC50: Human immunodeficiency virus 1, MT2, MT-2 cells, 100 TCID50, MTT assay, read-out: EC50 Against HIV-1LAI
# Procedure: as §1
# [13] = test system: HIV-1LPV ^R 5μM; experiment: p24 production inhibition in MT-4 cells; type: cell-based; conditions: for EC50: Human immunodeficiency virus 1, MT4, read-out: EC50 HIV-1LPV ^R 5μM, MT-4 cells, p24 Gag production
# Procedure: as §1
# [14] = test system: HIV-1_9510 ^R 36P; experiment: p24 production inhibition in MT-4 cells; type: cell-based; conditions: for EC50: Human immunodeficiency virus 1, MT4, read-out: EC50 HIV-19510RP36; for fold change of EC50 HIV-19510RP36: compared to EC50 for HIV-1NL4-3, Supplemental Table 3
# Procedure: as §1
# [15] = test system: HIV-1ATV ^R 5μM; experiment: p24 production inhibition in MT-4 cells; type: cell-based; conditions: for EC50: Human immunodeficiency virus 1, MT4, read-out: EC50 HIV-1ATV ^R 5μM, MT-4 cells, p24 Gag production
# Procedure: as §1
# [16] = test system: HIV-1APV ^R 5μM; experiment: p24 production inhibition in MT-4 cells; type: cell-based; conditions: for EC50: Human immunodeficiency virus 1, MT4, read-out: EC50 HIV-1APV ^R 5μM, MT-4 cells, p24 Gag production
# Procedure: as §1
# [17] = test system: HIV-1NL4-3; experiment: p24 production inhibition in MT-4 cells; type: cell-based; conditions: Human immunodeficiency virus 1, MT4, MT-4 cells, p24 Gag production
# Procedure: as §1
# [18] = test system: HIV-1NL4-3; design: method as in PMID 14506019; conditions: HIV-1NL4-3 in MT-4 cells, increasing concentrations; previously reported; cited from earlier work
# [19] = test system: HIV-1NL4-3; conditions: MT-4 cells, p24 assay, previously reported; and 22; cited from earlier work
# [20] = test system: HIV-1APV ^R 5μM; design: method as in earlier work; conditions: and 22, cited from earlier work
# [21] = test system: HIV-1ERS104pre (wild-type); conditions: PHA-PBMs, p24 assay, previously reported; and 22; read-out: EC50 HIV-1WT/ERS104pre; cited from earlier work
# [22] = test system: HIV-1MDR/G; design: method as in earlier work; conditions: and 22, cited from earlier work
# [23] = test system: HIV-1NL4-3; experiment: In vitro selection of resistant HIV-1 variants in MT-4 cells; type: cell-based; conditions: HIV-1NL4-3 in MT-4 cells, increasing concentrations
# Description: MT-4 cells (10^5/ml) were exposed to HIV-1NL4-3 (500 TCID50) and cultured in the presence of compounds at an initial concentration of its EC50 value. Viral replication was monitored by the determination of the amount of p24 produced by MT-4 cells. The supernatants were harvested on day 7 and were used to infect fresh MT-4 cells for the next round of culture in the presence of increasing concentrations of each compound. Proviral DNAs obtained from the lysates of infected cells were subjected to sequencing. This selection procedure was carried out until the drug concentration reached 5 μM as previously described[20]–[22]).
# [24] = compared to EC50 for HIV-1ERS104pre
# [25] = number in parentheses, compared to HIV-1NL4-3
SMILES,CC50 [2],EC50 [3],EC50 [4],EC50 [6],EC50 [7],EC50 [9],EC50 [10],EC50 [11],EC50 [12],EC50 [13],EC50 [14],fold change of EC50 HIV-19510RP36 [14],EC50 [15],EC50 [16],also measured
"CC(C)CN(C[C@@H](O)[C@H](Cc1ccccc1)NC(=O)O[C@H]1CCOC1)S(=O)(=O)c1ccc(N)cc1 [APV, Amprenavir]",48200 ± 9900 nM,> 1000 nM,39 ± 5 nM,300 ± 90 nM,420 ± 50 nM,250 ± 50 nM,320 ± 50 nM,297 ± 174 nM,37 ± 7 nM,> 1000 nM,270 ± 20 nM,9,350 ± 70 nM,> 1000 nM,"EC50 [1]: 41 ± 2 nM; fold change of EC50 HIV-1MDRmix DRV ^R 20P [3, 24]: > 26; EC50 [5]: 29 ± 2 nM; fold change of EC50 HIV-1MDR/G [6, 24]: 8; fold change of EC50 HIV-1MDR/B [7, 24]: 11; EC50 [8]: 22 ± 40 nM; fold change of EC50 HIV-1MDR/C [9, 24]: 6; fold change of EC50 HIV-1MDR/TM [10, 24]: 8; Selectivity Index (CC50/EC50) MT2/HIV-2ROD ([11]; ratio of CC50 to EC50 against HIV-2ROD): 162; Selectivity Index (CC50/EC50) MT2/HIV-1LAI ([12]; ratio of CC50 to EC50 against HIV-1LAI): 1,303; fold change of EC50 HIV-1LPV ^R 5μM [13, 25]: > 25; fold change of EC50 HIV-1ATV ^R 5μM [15, 25]: 9; fold change of EC50 HIV-1APV ^R 5μM [16, 25]: > 25; EC50 ([17]; Table 3): 30 ± 6 nM; passage at which selection concentration reached 5 µM [18]: ≥ 20"
CC(C)CN(C[C@@H](O)[C@H](Cc1ccccc1)NC(=O)O[C@H]1CO[C@H]2OCC(F)(F)[C@H]21)S(=O)(=O)c1ccc(N)cc1 [GRL-05010],–,–,–,–,–,–,–,–,–,–,–,–,–,–,"EC50 [19]: 3.7 ± 0.1 nM; EC50 ([20]; MT-4 cells, p24 assay, previously reported, read-out: EC50 HIV-1APVR5M): 560 ± 30 nM; fold change in EC50 HIV-1APVR5M ([20]; compared to HIV-1NL4-3, previously reported data): 187; EC50 [21]: 2.7 ± 0.3 nM; EC50 ([22]; PHA-PBMs, p24 assay, previously reported): 4 ± 1 nM; fold change in EC50 HIV-1MDR/G ([22]; compared to HIV-1WT/ERS104pre, previously reported data): 1"
"Cc1cccc(C)c1OCC(=O)N[C@@H](Cc1ccccc1)[C@@H](O)C[C@H](Cc1ccccc1)NC(=O)[C@H](C(C)C)N1CCCNC1=O [LPV, Lopinavir]",26700 ± 4200 nM,> 1000 nM,28 ± 2 nM,180 ± 20 nM,> 1000 nM,390 ± 50 nM,550 ± 90 nM,21 ± 7 nM,23 ± 3 nM,> 1000 nM,400 ± 20 nM,–,> 1000 nM,400 ± 10 nM,–
"Cc1nnc(C(=O)NC(C)(C)c2nc(C(=O)NCc3ccc(F)cc3)c(O)c(=O)n2C)o1 [RAL, Raltegravir]",–,–,–,–,–,–,–,–,–,–,–,–,–,–,passage at which selection concentration reached 5 µM [23]: ≥ 20
"CC(C)(C)NC(=O)[C@@H]1C[C@@H]2CCCC[C@@H]2CN1C[C@@H](O)[C@H](Cc1ccccc1)NC(=O)[C@H](CC(N)=O)NC(=O)c1ccc2ccccc2n1 [SQV, saquinavir]",–,–,–,–,–,–,–,–,–,–,41 ± 9 nM,2,–,–,EC50 ([17]; Supplemental Table 3): 18 ± 1 nM
